Experimental data taken from ChEMBL document CHEMBL1201862, “PubChem BioAssay data set” (2004).
Active and inactive are the calls of the source.

How the values were obtained:
Assay type in all cases: functional
[1] = target: T1, DNA dC->dU-editing enzyme APOBEC-3G (Homo sapiens, UniProt Q9HC16); test: Dose Response confirmation of small molecule APOBEC3G DNA Deaminase Inhibitors via a fluorescence-based single-stranded DNA deaminase assay. [Related pubchem assays (depositor defined):AID493012, AID493028]
T1 sequence (Q9HC16 whole entry): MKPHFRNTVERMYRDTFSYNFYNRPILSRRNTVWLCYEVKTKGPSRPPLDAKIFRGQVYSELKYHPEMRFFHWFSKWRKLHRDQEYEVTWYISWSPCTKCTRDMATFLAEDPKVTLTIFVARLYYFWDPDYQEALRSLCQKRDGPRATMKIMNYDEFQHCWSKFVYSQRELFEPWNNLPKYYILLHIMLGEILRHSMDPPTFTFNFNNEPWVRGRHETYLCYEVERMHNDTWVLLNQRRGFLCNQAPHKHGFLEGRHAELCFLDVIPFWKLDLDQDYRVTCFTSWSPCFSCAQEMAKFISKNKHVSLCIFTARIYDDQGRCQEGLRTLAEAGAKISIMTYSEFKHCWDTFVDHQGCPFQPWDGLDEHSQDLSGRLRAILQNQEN

[2] = target: T2, DNA dC->dU-editing enzyme APOBEC-3A (Homo sapiens, UniProt P31941); test: SAR analysis of small molecule inhibitors of APOBEC3A DNA Deaminase via a fluorescence-based single-stranded DNA deaminase assay - Set 2.; details: read-out: IC50_Mean
T2 sequence (P31941 whole entry): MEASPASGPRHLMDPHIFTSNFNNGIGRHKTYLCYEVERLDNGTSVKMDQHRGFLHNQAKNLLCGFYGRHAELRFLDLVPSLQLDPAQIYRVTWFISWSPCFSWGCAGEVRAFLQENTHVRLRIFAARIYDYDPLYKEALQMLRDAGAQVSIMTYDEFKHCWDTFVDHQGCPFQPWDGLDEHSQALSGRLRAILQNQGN

[3] = target: T2, DNA dC->dU-editing enzyme APOBEC-3A; test: A3A deaminase inhibition for selectivity – biochemical, dose response (AID 504722)
[4] = target: T3, Rac GTPase-activating protein 1 (Homo sapiens, UniProt Q9H0H5); test: blockers of MgcRacGAP-driven Rac1 GTP hydrolysis – biochemical, ADP Hunter fluorescence, primary and confirmatory, confirmation (AID 624330)
T3 sequence (Q9H0H5 whole entry): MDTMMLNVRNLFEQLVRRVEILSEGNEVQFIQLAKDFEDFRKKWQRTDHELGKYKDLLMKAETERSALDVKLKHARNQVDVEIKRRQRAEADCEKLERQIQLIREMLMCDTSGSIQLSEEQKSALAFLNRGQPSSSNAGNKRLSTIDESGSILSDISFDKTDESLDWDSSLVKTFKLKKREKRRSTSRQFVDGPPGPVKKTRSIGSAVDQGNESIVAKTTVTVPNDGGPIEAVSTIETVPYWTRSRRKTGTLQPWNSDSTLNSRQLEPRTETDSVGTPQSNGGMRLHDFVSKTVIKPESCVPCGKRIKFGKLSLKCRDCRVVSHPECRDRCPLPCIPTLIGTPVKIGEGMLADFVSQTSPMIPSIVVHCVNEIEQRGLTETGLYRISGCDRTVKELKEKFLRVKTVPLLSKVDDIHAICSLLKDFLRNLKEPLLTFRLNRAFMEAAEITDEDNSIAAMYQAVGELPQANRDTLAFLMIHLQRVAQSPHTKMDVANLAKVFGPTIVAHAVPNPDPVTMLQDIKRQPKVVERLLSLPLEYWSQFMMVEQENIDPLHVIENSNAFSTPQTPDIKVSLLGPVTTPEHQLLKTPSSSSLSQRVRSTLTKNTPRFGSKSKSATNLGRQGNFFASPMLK

[5] = target: T1, DNA dC->dU-editing enzyme APOBEC-3G; test: SAR analysis of small molecule inhibitors of APOBEC3G DNA Deaminase via a fluorescence-based single-stranded DNA deaminase assay - Set 2.; details: read-out: IC50_Mean
[6] = target: Neuropeptides B/W receptor type 1 (Homo sapiens, UniProt P48145); test: human NPBW1 receptor blockade, IC50 – cell-based, fluorescence, dose response, set 5, late-stage follow-up (AID 588566)
Chain of Neuropeptides B/W receptor type 1 (P48145 whole entry): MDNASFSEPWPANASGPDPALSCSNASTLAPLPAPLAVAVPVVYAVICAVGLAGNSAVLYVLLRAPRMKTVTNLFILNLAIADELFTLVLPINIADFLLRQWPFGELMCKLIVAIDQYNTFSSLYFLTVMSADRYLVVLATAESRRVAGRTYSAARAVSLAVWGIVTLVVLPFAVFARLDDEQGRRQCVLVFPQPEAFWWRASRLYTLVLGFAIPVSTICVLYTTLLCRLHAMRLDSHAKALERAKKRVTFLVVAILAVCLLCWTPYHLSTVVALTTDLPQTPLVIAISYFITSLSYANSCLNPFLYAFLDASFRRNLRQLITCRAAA

[7] = target: Melanin-concentrating hormone receptor 1 (Homo sapiens, UniProt Q99705); test: Late-stage fluorescence-based counterscreen for antagonists of the G-protein coupled receptor 7 (GPR7): cell-based dose response assay to identify antagonists of the melanin-concentrating hormone receptor 1 (MCHR1) Set 5.
Chain of Melanin-concentrating hormone receptor 1 (Q99705 whole entry): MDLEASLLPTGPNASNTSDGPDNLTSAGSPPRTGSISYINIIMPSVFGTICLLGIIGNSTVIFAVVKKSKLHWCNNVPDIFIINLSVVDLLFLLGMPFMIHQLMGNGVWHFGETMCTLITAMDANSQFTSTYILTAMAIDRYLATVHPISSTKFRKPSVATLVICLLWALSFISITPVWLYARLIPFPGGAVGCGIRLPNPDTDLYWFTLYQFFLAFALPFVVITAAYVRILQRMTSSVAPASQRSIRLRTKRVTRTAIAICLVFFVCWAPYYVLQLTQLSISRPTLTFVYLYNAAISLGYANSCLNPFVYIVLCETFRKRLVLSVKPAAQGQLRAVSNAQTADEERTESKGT

`O=c1c2ccccc2n2c(=S)[nH]nc2n1-c1ccccc1` was tested, and the IC50 [1] was 4.67 µM (active), the IC50 [2] was > 99 µM (inactive) and the IC50 [3] was > 100 µM (inactive). For the same compound, the IC50 [4] was 25.8 µM (active) and the IC50 [5] was 0.376 µM (active).
`CN(C)C(=O)c1ccc(Oc2c(Cl)cnn(Cc3cccc4ccccc34)c2=O)cc1` was tested, and the IC50 [6] was 9.29 µM (active) and the IC50 [7] was 7.88 µM (active).
